Reference: patent US20230149388A1, “OPIOID ANTAGONIST FORMULATIONS” (EMERGENT PRODUCT DEVELOPMENT GAITHERSBURG INC., priority 2020, published 2023)

Experiment: Pharmacokinetics of naloxone in Beagle dog, IM injection
Format: in vivo
Conditions: both sexes, plasma, 0.3 mg/kg, Beagle dogs
Method: Pharmacokinetic (“PK”) data was collected from male and female Beagle dogs. Two (2) animals of each sex were assigned to three cohorts. […] Each injection was administered at a dose of 0.3 mg/kg.
Blood samples were collected from each animal following IV injections at target time points of pre-dose, and at 0.033, 0.083, 0.167, 0.333, 0.5, 1, 2, 4, and 8 hr. Blood samples were also collected from each animal following IM injections at target time points of pre dose, and at 0.083, 0.167, 0.25, 0.333, 0.5, 1, 2, 4, and 8 hr. Blood samples were collected into tubes containing dipotassium ethylenediaminetetraacetic acid (K2EDTA), processed to plasma, and stored until analyzed for naloxone.
PK analysis was performed using the target dose (mg/kg), sample collection time points (hr), and the measured concentrations of naloxone (ng/mL) in serum. If the actual sample collection time points were within 5% of target from 0 to 4 hours or within 15 minutes after 4 hours, then the target time points were used. […] The lower limit of quantitation (LLOQ) in plasma for this method is 0.2 ng/mL.
The method utilized protein precipitation in a 96-well format and LC-MS/MS analysis. The literature method was modified to utilize a larger sample size (50 μL) analysis.
The concentration-time profiles were evaluated using the non-compartmental analysis (NCA) module in the WinNonlin® software program (Version 8.2). […]

## C=CCN1CC[C@]23c4c5ccc(O)c4O[C@H]2C(=O)CC[C@@]3(O)[C@H]1C5 [naloxone]
Following IM injection, typical value
  Tmax: ~15 min
Following both IM and IV injection, read-out: group mean elimination half-life
  half-life: 28 to 35 min
